Experimental data reported in patent publication US9220700B2, “Cysteine for physiological injection” (Cornell University, priority 2009, dated 2015).

Experiments:
[1] = test system: neuromuscular blockade produced by CW002; assay: Reversal of CW002 neuromuscular blockade (recovery of muscle twitch) by cysteine in anesthetized beagles; assay type: in vivo; details: 0.08 mg/kg CW002, cysteine given 1 minute after CW002
Method: Three anesthetized male beagles received CW002. After 1 minute and complete loss of muscle twitch, D-cysteine was administered at dosages of 10, 20, 50 or 100 mg/kg. Each dose was given as a single experiment separated from other experiments by at least 7 days. The rate and time to complete recovery of muscle twitch in each animal was determined.

neuromuscular blockade = assay: Reversibility of neuromuscular blockade effects by administration of thiol compounds; assay type: in vivo; details: administration of thiol compounds such as cysteine (L or D) or glutathione
[2] = test system: anesthetized male beagles; details: 100 mg/kg; previous work by the inventors; cited from earlier work
[3] = test system: neuromuscular blockade produced by CW002; details: previous study (Sunaga et al.); cited from earlier work
rats = assay: L-cysteine toxicology in rats; assay type: in vivo; details: conscious rats; bolus injections of 750 mg/kg intravenously
Source text: This Example describes toxicology studies performed using FDA guidelines.

[4] = Natural pH, solubility and precipitation of cysteine solutions (general statements); assay type: physicochemical

SMILES: N[C@H](CS)C(=O)O [D-cysteine]
- Dose range effective for reversal of CW002 [1]: 30 to 50 mg/kg

SMILES: COc1ccc(CC2c3cc(OC)c(OC)cc3CC[N+]2(C)CCCOC(=O)/C=C/C(=O)OCCC[N+]2(C)CCc3cc(OC)c(OC)cc3C2Cc2ccc(OC)c(OC)c2)cc1OC (centres unmarked) [CW002]
- Reversibility of neuromuscular blockade effects by thiol compounds (neuromuscular blockade): reversible

SMILES: COc1ccc(C[C@@H]2c3cc(OC)c(OC)cc3CC[N@@+]2(C)CCCOC(=O)/C=C\C(=O)OCCC[N@+]2(C)CCc3cc(OC)c(OC)cc3[C@H]2Cc2cc(OC)c(OC)c(OC)c2)cc1OC [CW 011]
- Reversibility of neuromuscular blockade effects by thiol compounds (neuromuscular blockade): reversible

SMILES: N[C@@H](CS)C(=O)O [L-cysteine]
- Effect on blood pressure (previous work) [2]: modest increase in blood pressure
- Dose range effective for reversal of CW002 (previously described) [3]: 30 to 50 mg/kg
- Clinical, biochemical, or histological evidence of organ toxicity (rats): No animals exhibited clinical, biochemical, or histological evidence of organ toxicity

SMILES: N[C@@H](CS)C(=O)O [cysteine]
- solubility ([4]; base form, read-out: Solubility of cysteine in its base form): ≤ 50 mg/mL
- Precipitation of cysteine solutions adjusted with sodium hydroxide ([4]; pH values above 3): rapid cystine precipitation
